Where two headings read alike, the source gives them in different places.
Target: T1, IRAK4 (Homo sapiens, UniProt Q9NWZ3)
T1 sequence (Q9NWZ3 1-460): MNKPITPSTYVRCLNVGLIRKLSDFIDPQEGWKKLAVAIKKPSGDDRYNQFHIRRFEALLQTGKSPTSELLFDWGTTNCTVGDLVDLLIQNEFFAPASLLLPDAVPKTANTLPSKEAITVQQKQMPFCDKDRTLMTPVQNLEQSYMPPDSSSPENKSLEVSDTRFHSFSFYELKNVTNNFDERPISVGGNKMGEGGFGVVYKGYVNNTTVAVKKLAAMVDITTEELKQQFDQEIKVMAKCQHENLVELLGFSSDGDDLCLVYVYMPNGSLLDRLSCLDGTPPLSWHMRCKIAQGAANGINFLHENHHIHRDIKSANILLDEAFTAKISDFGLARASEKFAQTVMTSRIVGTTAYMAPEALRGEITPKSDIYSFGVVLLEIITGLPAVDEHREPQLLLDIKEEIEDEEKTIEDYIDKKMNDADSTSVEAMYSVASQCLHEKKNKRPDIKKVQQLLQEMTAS
Test: Hibit fluorescence detection of proteolysis (IRAK4-HiBiT in HEK293T cells)
Format: cell-based
Set-up: host or cells: HEK293T (ATCC)
Settings: for Dmax: HEK-293T
Method: Utilizing HiBiT tag technology, the HiBiT tag-containing sequence (Seq. ID. No. 1, Beijing Tsingke Biotech Co., Ltd.) was connected to the IRAK4 plasmid (Seq. ID. No. 2, Beijing Tsingke Biotech Co., Ltd.), and the plasmid was transfected into HEK293T cells (ATCC). […] The 6-well plate that was incubated overnight was taken out. After the plate was left at room temperature for 15 min, the obtained mixture was added dropwise to the 6-well plate. […] Culture was performed at 37°C and 5% CO2 for 24 h. The 384-well plate was taken out and equilibrated to room temperature. 40 µL of Nano-Glo® HiBiT Lytic Detection System (Promega N3030) was added to each well and incubated at room temperature for 15 min. […] Prism 9.3 software was used to perform fitting analysis for data, and non-linear fitting (non-liner inhibitor (Bell-shaped)) and four parameters (4 parameter) were used, and the parameters was as follows: Span1 = Plateau1−Dip [formula] Span2 = Plateau2−Dip [formula] Section1 = Span1/(1+10^(∧)((LogEC50_1−X)*nH1)) [formula] Section2 = Span2/(1+10^(∧)((X−LogEC50_2)*nH2)) [formula]
The equation was as follows: Y=Dip+Section1+Section2. • Seq. ID. No. 1 ([…]), other DNA, synthetic construct, sequence length 33; • Seq. ID. No. 2 [formula]

[1] = IRAK4-HiBiT, HEK293T cells, 24 h
[2] = IRAK4-HiBiT, HEK293T cells, 24 h, read-out: DC50

Dmax (IRAK4-HiBiT, HEK293T cells, 24 h, read-out: Dmax)	Structure (SMILES)	Dmax	DC50 [1]	DC50 [2]
	Cn1c(=O)n(C2CCC(=O)NC2=O)c2cccc(CN3CCC4(CC3)CCN(C[C@H]3CC[C@H](n5cc(-n6cc(-c7cnn8ccc(N9CCOCC9)nc78)nn6)c(C(F)F)n5)CC3)CC4)c21 (some centres unmarked) [Example 6]	< 60%	< 0.5 nM	
	Cn1c(=O)n(C2CCC(=O)NC2=O)c2cccc(C#CCOC3CCN(C[C@H]4CC[C@H](n5cc(-n6cc(-c7cnn8ccc(N9CCOCC9)nc78)nn6)c(C(F)F)n5)CC4)CC3)c21 (some centres unmarked) [Example 7]	60 to 70%	< 0.5 nM	
	Cn1c(=O)n(C2CCC(=O)NC2=O)c2cccc(CC3CCN(CC4CCN(C[C@H]5CC[C@H](n6cc(-n7cc(-c8cnn9ccc(N%10CCOCC%10)nc89)nn7)c(C(F)F)n6)CC5)CC4)CC3)c21 (some centres unmarked) [Example 8]	< 60%	> 5 nM	
	Cn1c(=O)n(C2CCC(=O)NC2=O)c2cccc(NCC3CC4(CCN(C[C@H]5CC[C@H](n6cc(-n7cc(-c8cnn9ccc(N%10CCOCC%10)nc89)nn7)c(C(F)F)n6)CC5)CC4)C3)c21 (some centres unmarked) [Example 9]	< 60%	< 0.5 nM	
	Cn1c(=O)n(C2CCC(=O)NC2=O)c2cccc(CNC3CC4(CCN(C[C@H]5CC[C@H](n6cc(-n7cc(-c8cnn9ccc(N%10CCOCC%10)nc89)nn7)c(C(F)F)n6)CC5)CC4)C3)c21 (some centres unmarked) [Example 10]	> 80%	< 0.5 nM	
	Cn1c(=O)n(C2CCC(=O)NC2=O)c2cccc(C3CCN(C[C@H]4CC[C@H](n5cc(-n6cc(-c7cnn8ccc(N9CCOCC9)nc78)nn6)c(C(F)F)n5)CC4)CC3)c21 (some centres unmarked) [Example 11, 3-(4-(1-(((1r,4r)-4-(3-(difluoromethyl)-4-(4-(5-morpholinopyrazolo[1,5-a]pyrimidin-3-yl)-1H-1,2,3-triazol-1-yl)-1H-pyrazol-1-yl)cyclohexyl)methyl)piperidin-4-yl)-3-methyl-2-oxo-2,3-dihydro-1H-benzo[d]imidazol-1-yl)piperidine-2,6-dione]	> 80%	< 0.5 nM	
	Cn1c(=O)n(C2CCC(=O)NC2=O)c2cccc(CN3CC4(C3)CN(C[C@H]3CC[C@H](n5cc(-n6cc(-c7cnn8ccc(N9CCOCC9)nc78)nn6)c(C(F)F)n5)CC3)C4)c21 (some centres unmarked) [Example 12, 3-(4-((6-(((1r,4r)-4-(3-(difluoromethyl)-4-(4-(5-morpholinopyrazolo[1,5-a]pyrimidin-3-yl)-1H -1,2,3-triazol-1-yl)-1H-pyrazol-1-yl)cyclohexyl)methyl)-2,6-diazaspiro[3.3]hept-2-yl)methyl)-3-methyl-2-oxo-2,3-dihydro-1H-benzo[d]imidazol-1-yl)piperidine-2,6-dione]	70 to 80%	< 0.5 nM	
	Cn1c(=O)n(C2CCC(=O)NC2=O)c2cccc(CN3CC4(CCN(C[C@H]5CC[C@H](n6cc(-n7cc(-c8cnn9ccc(N%10CCOCC%10)nc89)nn7)c(C(F)F)n6)CC5)CC4)C3)c21 (some centres unmarked) [Example 13, 3-(4-((7-(((1r,4r)-4-(3-(difluoromethyl)-4-(4-(5-morpholinopyrazolo[1,5-a]pyrimidin-3-yl)-1H -1,2,3-triazol-1-yl)-1H-pyrazol-1-yl)cyclohexyl)methyl)-2,7-diazaspiro[3.5]nonan-2-yl)methyl)-3-methyl-2-oxo-2,3-dihydro-1H-benzo[d]imidazol-1-yl)piperidine-2,6-dione]	> 80%	< 0.5 nM	
	Cn1c(=O)n(C2CCC(=O)NC2=O)c2cccc(CN3CCC4(CC3)CN(C[C@H]3CC[C@H](n5cc(-n6cc(-c7cnn8ccc(N9CCOCC9)nc78)nn6)c(C(F)F)n5)CC3)C4)c21 (some centres unmarked) [Example 14]	< 60%	0.5 to 1 nM	
	CN(C[C@H]1CC[C@H](n2cc(-n3cc(-c4cnn5ccc(N6CCOCC6)nc45)nn3)c(C(F)F)n2)CC1)C1CCN(Cc2cccc3c2n(C)c(=O)n3C2CCC(=O)NC2=O)CC1 (some centres unmarked) [Example 15]	< 60%	1 to 5 nM	
	Cn1c(=O)n(C2CCC(=O)NC2=O)c2cccc(CCC(=O)N3CCC4(CC3)CN(C[C@H]3CC[C@H](n5cc(-n6cc(-c7cnn8ccc(N9CCOCC9)nc78)nn6)c(C(F)F)n5)CC3)C4)c21 (some centres unmarked) [Example 16]	60 to 70%	< 0.5 nM	
	Cn1c(=O)n(C2CCC(=O)NC2=O)c2cccc(C#CC3CCN(C[C@H]4CC[C@H](n5cc(-n6cc(-c7cnn8ccc(N9CCOCC9)nc78)nn6)c(C(F)F)n5)CC4)CC3)c21 (some centres unmarked) [Example 17]	70 to 80%	1 to 5 nM	
	Cn1c(=O)n(C2CCC(=O)NC2=O)c2cccc(NC(=O)N3CCC4(CCN(C[C@H]5CC[C@H](n6cc(-n7cc(-c8cnn9ccc(N%10CCOCC%10)nc89)nn7)c(C(F)F)n6)CC5)C4)CC3)c21 (some centres unmarked) [Example 18, 2-(((1r,4r)-4-(3-(difluoromethyl)-4-(4-(5-morpholinopyrazolo [1,5-a]pyrimidin-3-yl)-1H-1,2,3-triazol-1-yl)-1H-pyrazol-1-yl)cyclohexyl)methyl)-N-(1-(2,6-dioxopiperidin-3-yl)-3-methyl-2-oxo-2,3-dihydro-1H-benzo[d]imidazol-4-yl)-2,8-diazaspiro[4.5]decan-8-carboxamide]	> 80%		> 5 nM
	Cn1c(=O)n(C2CCC(=O)NC2=O)c2cccc(C#CC3(O)CN(C[C@H]4CC[C@H](n5cc(-n6cc(-c7ccc8cc(C(N)=O)cnn78)nn6)c(C(F)F)n5)CC4)C3)c21 (some centres unmarked) [Example 19]	70 to 80%	0.5 to 1 nM	
	CN(C[C@H]1CC[C@H](n2cc(-n3cc(-c4cnn5ccc(N6CCOCC6)nc45)nn3)c(C(F)F)n2)CC1)C1CCC(Nc2cccc3c2n(C)c(=O)n3C2CCC(=O)NC2=O)CC1 (some centres unmarked) [Example 20, 3-(4-((4-((((1r,4r)-4-(3-(difluoromethyl)-4-(4-(5-morpholinopyrazolo[1,5-a]pyrimidin-3-yl)-1H-1,2,3-triazol-1-yl)-1H-pyrazol-1-yl)cyclohexyl)methyl)(methyl)amino)cyclohexyl)amino)-3-methyl-2-oxo-2,3-dihydro-1H-benzo[d]imidazol-1-yl)piperidine-2,6-dione]	> 80%	< 0.5 nM	
	Cn1c(=O)n(C2CCC(=O)NC2=O)c2cccc(NC[C@H]3CC[C@@H](N(C)C[C@H]4CC[C@H](n5cc(-n6cc(-c7cnn8ccc(N9CCOCC9)nc78)nn6)c(C(F)F)n5)CC4)CC3)c21 (stereo partly drawn) [Example 21, 3-(4-((((1S,4s)-4-((((1r,4R)-4-(3-(difluoromethyl)-4-(4-(5-morpholinopyrazolo[1,5-a]pyrimidin-3-yl)-1H-1,2,3-triazol-1-yl)-1H-pyrazol-1-yl)cyclohexyl)methyl)(methyl)amino)cyclohexyl)methyl)amino)-3-methyl-2-oxo-2,3-dihydro-1H-benzo[d]imidazol-1-yl)piperidine-2,6-dione]	< 60%	< 0.5 nM	
< 60%	Cc1c(/C=C2\C(=O)Nc3ccc(S(=O)(=O)Nc4ccc(F)cc4)cc32)[nH]c2cc(N3CCN(CC4CCN(c5ccc(C(=O)NC6CCC(=O)NC6=O)c(F)c5)CC4)CC3)ccc12 (centres unmarked) [Example 22, N-(2,6-dioxopiperidin-3-yl)-2-fluoro-4-(4-{[4-(2-{[(3Z)-5-[(4-fluorophenyl)sulfamoyl]-2-oxo-2,3-dihydro-1H-indol-3-ylidene]methyl}-3-methyl-1H-indol-6-yl)piperazin-1-yl]methyl}piperidin-1-yl)benzamide]			> 5 nM
	CN(C[C@H]1CC[C@H](n2cc(-n3cc(-c4cnn5ccc(N6CCOCC6)nc45)nn3)c(C(F)F)n2)CC1)C1CCC2(CC1)CC(Nc1cccc3c1n(C)c(=O)n3C1CCC(=O)NC1=O)C2 (some centres unmarked) [Example 23, 3-(4-((7-((((1r,4r)-4-(3-(difluoromethyl)-4-(4-(5-morpholinopyrazolo[1,5-a]pyrimidin-3-yl)-1H-1,2,3-triazol-1-yl)-1H-pyrazol-1-yl)cyclohexyl)methyl)(methyl)amino)spiro[3.5]nonan-2-yl)amino)-3-methyl-2-oxo-2,3-dihydro-1H-benzo[d]imidazol-1-yl)piperidine-2,6-dione]	> 80%	< 0.5 nM	
	Cn1c(=O)n(C2CCC(=O)NC2=O)c2cccc(NC[C@H]3CC[C@H](N(C)C[C@H]4CC[C@H](n5cc(-n6cc(-c7cnn8ccc(N9CCOCC9)nc78)nn6)c(C(F)F)n5)CC4)CC3)c21 (stereo partly drawn) [Example 24, 3-(4-((((1R,4r)-4-((((1r,4R)-4-(3-(difluoromethyl)-4-(4-(5-morpholinopyrazolo[1,5-a]pyrimidin-3-yl)-1H-1,2,3-triazol-1-yl)-1H-pyrazol-1-yl)cyclohexyl)methyl)(methyl)amino)cyclohexyl)methyl)amino)-3-methyl-2-oxo-2,3-dihydro-1H-benzo[d]imidazol-1-yl)piperidine-2,6-dione]	< 60%	< 0.5 nM	

From patent publication EP4759807A1, “PROTEOLYSIS TARGETING CHIMERA COMPOUND FOR DEGRADING IRAK4 AND USE THEREOF” (Shenzhen Zhongge Biological Technology Co., Ltd., priority 2023, dated 2025)
